Assay results published in patent publication US20230364062A1, “METHOD OF TREATING MYELOID MALIGNANCIES” (Yeda Research and Development Co. Ltd., priority 2020, published 2023).

What was measured:
[1] = system: AML2 SRSF2 (P95H) mutant cell line; test: Cell viability assay (CellTiter-Glo), drug screen and dose response; format: cell-based, human; conditions: validation and dose response after primary screen, 48 hours
Excerpt: (§1) Compound Libraries: Three commercial libraries were used in the screening process: the Bioactive library (New Selleck Collection 2020, n=3727), the Kinom Set (n=187), and the Epigenetic chemical probe library (Structural Genomics Consortium, n=97).
(§2) Cell viability assay: Compounds were dispensed in 384-well plates using an ECHO® 555 liquid handler (Labcyte) and sealed. On day of experiment, the concentrations of isogenic and respective wildtype cell lines were counted using a Countess™ II FL (Invtrogen™) and re-suspended at 40,000 cell/ml. 50 μL of medium was dispensed using a Multidrop™ Combi Reagent Dispenser (Thermo Fisher), bringing the total number of cells in each well to 2000. Cells were incubated for 48 hours. On day of measurement, plates were centrifuged and supernatant was removed using a Washer/Dispenser II (GNF Systems). A Washer/Dispenser II was then used to dispense CellTiter-Glo® (G7572, Promega) as per the manufacturer's instructions. The luminescence signal was then measured using a PHERAstar® FSX (BMG Labtech) and results were analyzed using Genedata Screener®. The viability of treated cells was normalized to a vehicle control, contained on each plate.
(§3) Next, a sensitivity screening of […] chemical compounds from three commercial libraries: the Bioactive collection (New Selleck Collection 2020, n=3727), the Kinom Set (n=187), and the Epigenetic chemical probe library (Structural Genomics Consortium, n=97) was carried out on the isogenic cell lines. Following a primary screen, compounds with higher cytotoxic efficacy in the mutant versus WT cells were chosen for further validation and dose response analysis. Both mutant MOLM14 and AML2 cell lines responded to various ROCK inhibitors (ROCKi), including, GSK429286A, GSK180736A, Y-39983 and specifically to RKI-1447.

[2] = system: MOLM14 SRSF2 (P95H) mutant cell line; test: as above; format: cell-based, human; conditions: validation and dose response after primary screen, 48 hours
Excerpt: as §1, §2, §3

[3] = system: MOLM14 SRSF2 mutant cell line; test: Cell cycle analysis after RKI-1447; format: cell-based, human
[4] = system: MOLM14 wild type cell line; test: Cell cycle analysis after RKI-1447; format: cell-based, human; conditions: 0.5 μM RKI-1447 compared to untreated control
Excerpt: (§4) Rho-associated protein kinases (ROCKs or Rho kinases) are key regulators of the actin cytoskeleton and are required for separating cells' duplicated genetic material during cell division to ensure proper partitioning of DNA in to daughter cells. Actin is also linked to RNA polymerase function and associated with many heterogeneous nuclear ribonucleoproteins, and may thus act to affect pre-mRNA processing and regulate transcription. Given this knowledge of ROCKs and actin, it was hypothesized that disrupting the function of ROCKs will result in cell cycle and RNA splicing alteration. In order to test this hypothesis, RNA sequencing and proteomics were performed on isogenic lines prior to and following exposure to RKI-1447. […] One of the significant up regulated protein is CDC20. CDC20 is an activator of anaphase-promoting complex/cyclosome (APC/C), and APC/Cdc 20 activity is critical for metaphase/anaphase transition.

[5] = system: SRSF2 mutant cells; test: Nuclear morphology and microtubule structure by confocal microscopy; format: cell-based, human; conditions: SRSF2 mutant cells following RKI-1447 treatment
Excerpt: The nuclear morphology and microtubule structure of SRSF2 mutant cells was examined by confocal microscopy following RKI-1447 treatment. […] The surface area of the nucleus of mutant cells was considerably bigger than that of WT cells, and the sphericity was reduced (FIGS. 5B-D).

[6] = system: MOLM14 SRSF2 mutant cells; test: MOLM14 cell line xenograft model of AML in NSG mice; format: in vivo; conditions: NSG mice transplanted with MOLM14 cell line model; compared to the control
[7] = system: SRSF2 mutated AML; test: AML-PDX models with SRSF2 mutations in NSG mice; format: in vivo; conditions: two AML-PDX samples; 3 weeks of treatment from day 35; versus carrier control
Experimental: To evaluate whether SRSF2 mutated AML is sensitive to RKI-1447, the present inventors studied its effect in vivo with cell line and patient-derived xenograft model of AML. […] Two AML-PDX models with SRSF2 mutations were established that recapitulate the disease in vivo. NSG mice (n=5-10/sample) were injected with one to five million CD3− cells from two patients with SRSF2 mutated AML through femur. On day 35 the animals were randomized to RKI-1447 or a carrier control. Following 3 weeks of treatment week, engraftment of AML cells in BM was evaluated using flow cytometry. Both lymphoid (CD19+ B cells) and myeloid lineages (CD45dimCD33+) are detected, but dominantly are myeloid graft, in our AML-PDX models. […] To determine the grafts origin from srsf2 mutated LSC/ pre-leukaemic HSCs, human cells (CD45+) were isolated from the total BM cells and amplicon sequence of SRSF2 was performed.

[8] = system: isogenic SRSF2 mutant and wild-type cell lines; test: RNA sequencing and proteomics with pre ranked GSEA before and after RKI-1447; format: cell-based, human; conditions: both mutant and wild-type cells after exposure to RKI-1447
Excerpt: as §4

[9] = 0.5 μM RKI-1447 compared to untreated control, MOLM14 SRSF2 mutant

Row | Compound | response of mutant cell line to ROCK inhibitor (cytotoxic efficacy mutant versus WT) [1] | response of mutant cell line to ROCK inhibitor (cytotoxic efficacy mutant versus WT) [2] | cell cycle difference in MOLM14 SRSF2 mutant relative to wild type ([3]; 0.5 μM RKI-1447, P<0.01) | percentage of G0/G1 phase cells [3, 9] | percentage of G2/M and S phase cells [3, 9] | percentage of G0/G1 phase cells [4] | percentage of G2/M and S phase cells [4] | apoptosis [5] | nuclear morphology [5] | engraftment (number of CD45+ cells) [6] | engraftment rate of AML cells in BM (flow cytometry) [7] | pre ranked GSEA, regulated pathways [8]
1 | O=C(NCc1cccc(O)c1)Nc1nc(-c2ccncc2)cs1 [RKI-1447] | responded | responded | more pronounced | decrease in the percentage | higher percentage | decrease in the percentage | higher percentage | apoptosis | nucleus invagination and deformations | significant decrease of engraftment | significant lower engraftment rate | cell cycle is one of the most significantly up-regulated pathways
2 | C[C@@H](N)c1ccc(C(=O)Nc2ccnc3[nH]ccc23)cc1 [Y-39983] | responded | responded | – | – | – | – | – | – | – | – | – | –
3 | CC1=C(C(=O)Nc2cc3cn[nH]c3cc2F)C(c2ccc(C(F)(F)F)cc2)CC(=O)N1 (stereo not drawn) [GSK429286A] | responded | responded | – | – | – | – | – | – | – | – | – | –
4 | CC1=C(C(=O)Nc2ccc3[nH]ncc3c2)C(c2ccc(F)cc2)NC(=O)N1 (stereo not drawn) [GSK180736A] | responded | responded | – | – | – | – | – | – | – | – | – | –
